The values below come from PMC10220285, “Development of an assay pipeline for the discovery of novel small molecule inhibitors of human glutathione peroxidases GPX1 and GPX4” (Redox Biology, 2023).

The target of assay [1] is T1, GPX1 (Homo sapiens, UniProt P07203).
T1 construct: made in house; host or cells: E. coli
T1 sequence (P07203 1-203): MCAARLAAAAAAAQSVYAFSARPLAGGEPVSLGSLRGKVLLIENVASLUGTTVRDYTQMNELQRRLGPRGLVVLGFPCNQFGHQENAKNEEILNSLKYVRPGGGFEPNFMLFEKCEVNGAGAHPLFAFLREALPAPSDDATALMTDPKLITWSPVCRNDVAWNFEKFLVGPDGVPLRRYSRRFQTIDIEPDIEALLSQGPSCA
Put plainly: nanoDSF thermal stabilization, GPX1. The conditions noted are these: for GSH Binding (ΔTm) GPx1; shift in nanoDSF melting temperature / Tm GPX1 (nanoDSF): first or only inflection point; for thermal stabilization of GPX1: nanoDSF. Type of assay: binding. How it is done: (§1) Thermal stabilization of enzyme ± DMSO or ± compound was carried out in a Prometheus NT.48 instrument (NanoTemper Technologies) with an excitation wavelength of 280 nm. Intrinsic fluorescence at 330 nm and 350 nm was monitored while heating. Capillaries were filled with ∼10 μL of a solution of GPX1/4 (1 mg/mL), ± small molecule (100 μM) or DMSO, in TES buffer and placed into the instrument. The capillaries were subjected to a temperature range from 30 to 90 °C at a ramp rate of 2 °C/min. The ratio of the recorded emission intensities (350nm/330 nm) were plotted as a function of temperature. This ratio and first derivatives were calculated using the NanoTemper software and were plotted using GraphPad Prism.

Assay [2] deals with T2, GPX4 (Homo sapiens, UniProt P36969).
T2 construct: made in house; host or cells: E. coli
T2 sequence (P36969 1-170 isoform P36969-2): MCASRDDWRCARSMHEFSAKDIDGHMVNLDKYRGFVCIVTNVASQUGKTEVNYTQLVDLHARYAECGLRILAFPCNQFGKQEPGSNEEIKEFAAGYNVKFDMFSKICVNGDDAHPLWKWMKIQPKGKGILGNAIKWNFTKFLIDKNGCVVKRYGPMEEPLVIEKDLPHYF
Put plainly: nanoDSF thermal stabilization, GPX4. Type of assay: binding. The settings on record: for GSH Binding (ΔTm) GPx4; shift in nanoDSF melting temperature / Tm GPX4 (nanoDSF): first or only inflection point. On the procedure:
as §1
Background: DSF heats the sample and reads unfolding from a dye or from intrinsic fluorescence.

A further assay addresses T3, human GPX2 (Homo sapiens, UniProt P18283).
T3 construct: made in house
T3 sequence (P18283 1-190): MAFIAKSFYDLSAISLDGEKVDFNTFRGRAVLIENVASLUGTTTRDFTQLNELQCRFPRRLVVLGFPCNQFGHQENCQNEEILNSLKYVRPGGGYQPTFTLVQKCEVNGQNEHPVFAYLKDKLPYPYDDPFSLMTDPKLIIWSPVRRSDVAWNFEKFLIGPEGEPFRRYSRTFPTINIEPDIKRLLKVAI
Put plainly: GPX2 activity assay (follow-up isoform specificity). The class given is biochemical. The conditions noted are these: IC50 of resulting CRC, Table 2. On the procedure:
(§2) The compound plates were prepared as described previously. Purified recombinant human GPX1, GPX2, GPX4, GR, and TXNRD1 were produced and purified as previously reported [[48], [49], [50]]. As production of GPX2 was not optimized at the onset of screening, only GPX1 and GPX4 underwent library screening, and GPX2 was used as a follow-up.
(§3) Follow-up and orthogonal assays were run in quadruplicate unless otherwise stated. Assay schemes are illustrated in Fig. 1.
Previous work has shown similarities in the substrate specificities of GPX1 and GPX2, and a more unique substrate profile of GPX4 [8].
The GPX2 isoform of human selenoprotein GPXs is found in epithelial cells and has similar substrate specificity with GPX1, but not as much with GPX4 [8]. Additionally, GPX1 and GPX2 both form homotetramers and share similarities in structural homology, although GPX2 has a much slower turnover rate.

Assay [3] deals with T1, GPX1. Put plainly: GR-coupled GPX1 activity assay (NADPH fluorescence, CHP substrate). Type of assay: biochemical. The settings on record: IC50 of resulting CRC, Table 2; read-out: IC50 GPx1. On the procedure: as §2, §3
(§4) To measure GPX activity, assays were performed in 1536-well format in black medium-binding solid-bottom plates (Greiner). These assay conditions were optimized for high-throughput screening from an assay first described by Paglia and Valentine. GPX activity is measured indirectly by coupling the reaction with GR whereby GPX reduces hydroperoxide by oxidizing two GSH to GSSG and the oxidized glutathione is recycled to its reduced state by GR and NADPH (Fig. 1B). The rate of consumption of NADPH is directly proportional to the activity of GPX and can be measured by the decrease in fluorescence at 340 nm/450 nm.
(§5) First, 3 μL of enzyme in TES assay buffer (50 mM Tris-HCl, 2 mM EDTA (pH 7.5), 150 mM NaCl with enzyme [10 nM GPX1, 200 nM GPX4 ] and BSA [0.01%]) was added to columns 3–48 of 1536-well plates using a BioRAPTR Flying Reagent Dispenser (Let's Go Robotics (LGR), Carlsbad, CA). A no-enzyme control (0.01% BSA in TES assay buffer) was added to columns 1–2. Compounds (25 nL, library and DMSO controls) were added to each well with a pin tool (Kalypsys), and the plates were incubated for 30 min at room temperature before 1 μL of master mix (100 nM GR, 1 mM GSH, 0.5 mM NADPH in TES buffer) was added. 1 μL of cumene hydroperoxide (CHP) ([0.5 mM] in 50% EtOH) was then added within 5 min to initiate the reaction. Fluorescence at 340/450 nm was measured using a ViewLux multimodal detector (PerkinElmer, Waltham, MA) at initial t = 0 and endpoint t = 15 min (GPX1) or t = 20 min (GPX4).
(§6) Follow-up confirmation assays were also run in 96-well format using medium binding clear 96-well SpectraPlate microplates (PerkinElmer) and NADPH absorbance at 340 nm was measured every 30 s for 30 min using an Infinite® M Nano (Tecan).
(§7) Percent activity was determined by first calculating delta RFU (decrease in fluorescence between t = 0 and t = 20/30 min in primary GPX, GR counter-screen, and TXNRD1 assays, or increase in fluorescence between t = 0 and t = 20 min in the Monobromobimane GPX endpoint assay), and normalizing enzyme activity using median delta RFU values for DMSO-treated enzyme control, and DMSO-treated no-enzyme controls.
(§8) Compound inhibitory activity in the qHTS assays was determined by plotting dose-response data for each sample and fitting with a four-parameter logistic fit to assess IC50 values, efficacy (maximal response), and AUC (area under the curve), as previously described. Hits were classified by the quality of the concentration-response curves (CRC). Curve classes −1.1 and −1.2 being the highest-confidence actives with complete CRCs and classes −2.1 and −2.2 being lower-confidence actives with incomplete CRCs.

The target in assay [4] is T2, GPX4. Put plainly: GR-coupled GPX4 activity assay (NADPH fluorescence, CHP substrate). The class given is biochemical. The conditions noted are these: IC50 of resulting CRC, Table 2; read-out: IC50 GPx4. On the procedure: as §2, §3, §4, §5, §6, §7, §8
Where [5] appears, read: 100 μM small molecule vs DMSO control.
[6] abbreviates: 100 μM small molecule vs DMSO control, second inflection point.

Where a name gives a salt, the structure may show the parent alone. Where only a bound is given, the exact number is not on record here.

As to `N[C@@H](CCC(=O)N[C@@H](CS)C(=O)NCC(=O)O)C(=O)O` [Glutathione], the “GSH Binding (ΔTm) GPx1; shift in nanoDSF melting temperature” value at GPX1 [1] (setting [5]) was “+3.6 °C”. Also, the “Tm GPX1 (nanoDSF)” value at GPX1 [1] (100 μM, DMSO control Tm 42.5°C) stood at 46.1 °C. In addition, the “GSH Binding (ΔTm) GPx4; shift in nanoDSF melting temperature” value at GPX4 [2] (setting [5]) was “+4.7 °C”. At GPX4 [2] (100 μM, DMSO control Tm 48.2°C), the “Tm GPX4 (nanoDSF)” value is 52.9 °C.
For `O=C(O)C(S)C(S)C(=O)O` (centres unmarked) [2,3-Dimercaptosuccinic acid], the “GSH Binding (ΔTm) GPx1; shift in nanoDSF melting temperature” value at GPX1 [1] (setting [5]) is -0.9 °C. Also, the “Tm GPX1 (nanoDSF)” value at GPX1 [1] (100 μM, DMSO control Tm 42.5°C) is 41.6 °C. Moreover, the IC50 (commonly the midpoint of a concentration-inhibition curve) was 2.3 µM against human GPX2 and 5.2 µM on GPX1 [3].
Take `COc1ccc2[nH]c([S+]([O-])Cc3ncc(C)c(OC)c3C)nc2n1` (centres unmarked) [Tenatoprazole]: the “GSH Binding (ΔTm) GPx1; shift in nanoDSF melting temperature” value on GPX1 [1] (setting [5]) was “+7.5 °C”. Besides, the “Tm GPX1 (nanoDSF)” value at GPX1 [1] (100 μM, DMSO control Tm 42.5°C) is 50.0 °C. The “thermal stabilization of GPX1” value on GPX1 [1] is “significant shifts in the melting temperature of GPX1”. The IC50 against human GPX2 is 7.7 µM; at GPX1 [3] it was 8.9 µM.
Consider `Nc1nc(/C(=C/CC(=O)O)C(=O)N[C@@H]2C(=O)N3C(C(=O)O)=CCS[C@H]23)cs1` [Ceftibuten], for which, at GPX1 [1] (setting [5]), the “GSH Binding (ΔTm) GPx1; shift in nanoDSF melting temperature” value is -0.2 °C. Further, at GPX1 [1] (100 μM, DMSO control Tm 42.5°C), the “Tm GPX1 (nanoDSF)” value stood at 42.3 °C. Moreover, on GPX1 [1], the “thermal stabilization of GPX1” value is given as “did not show any thermal stabilization”. Besides, the values for the IC50 against human GPX2 and at GPX1 [3] were 10 µM and 18.5 µM, respectively.
Turning to `O=C(NNCS(=O)(=O)O)c1ccncc1` [Isoniazid sodium methanesulfonate], the values for the IC50 against human GPX2, on GPX4 [4] and on GPX1 [3] were 1.7 µM, 4.6 µM and 5.2 µM, respectively.
For `CO[C@@]1(NC(=O)Cc2cccs2)C(=O)N2C(C(=O)O)=C(COC(N)=O)CS[C@@H]21` [Cefoxitin sodium salt], the “GSH Binding (ΔTm) GPx1; shift in nanoDSF melting temperature” value on GPX1 [1] (setting [5]) is “+0.4 °C”. Besides, on GPX1 [1] (100 μM, DMSO control Tm 42.5°C), the “Tm GPX1 (nanoDSF)” value amounted to 42.9 °C. Also, the “thermal stabilization of GPX1” value at GPX1 [1] is reported as “did not show any thermal stabilization”. The results for the IC50 at human GPX2 and at GPX1 [3] were more than 20 µM and 9.3 µM, respectively.
As to `CC1(C)CCC(c2ccc(Cl)cc2)=C(CN2CCN(c3ccc(C(=O)NS(=O)(=O)c4ccc(N[C@H](CCN5CCOCC5)CSc5ccccc5)c(S(=O)(=O)C(F)(F)F)c4)cc3)CC2)C1` [Navitoclax (ABT-263), Navitoclax], at GPX4 [4], the IC50 came out at 11.4 µM. Further, the “GSH Binding (ΔTm) GPx4; shift in nanoDSF melting temperature” value on GPX4 [2] (setting [5]) was “+3.2 °C”. On GPX4 [2] (100 μM, DMSO control Tm 48.2°C), the “Tm GPX4 (nanoDSF)” value was 51.4 °C.
The corresponding values for `CCCCCCO[C@@H](C)c1cccc(-c2csc(NC(=O)c3cc(Cl)c(/C=C(\C)C(=O)O)c(Cl)c3)n2)c1OC` [Lusutrombopag] are 5.4 µM, “+4.1 °C” and 52.3 °C.
As for `Cc1cc(OCCCc2c3n(c4c(-c5c(C)nn(C)c5C)c(Cl)ccc24)[C@H](C)CN(c2cn(C)c4ccc(C(=O)O)cc24)C3=O)cc(C)c1Cl` [VU0661013], the IC50 at GPX4 [4] is 8.4 µM. Besides, the “GSH Binding (ΔTm) GPx4; shift in nanoDSF melting temperature” value on GPX4 [2] (setting [5]) was “+3.6 °C”. The “GSH Binding (ΔTm) GPx4; shift in nanoDSF melting temperature, second inflection point” value at GPX4 [2] (setting [6]) was “+12.0 °C”. Moreover, at GPX4 [2] (100 μM, DMSO control Tm 48.2°C), the “Tm GPX4 (nanoDSF), second inflection point” value amounted to 60.2 °C and the “Tm GPX4 (nanoDSF)” value turned out to be 51.8 °C.
On to `O=C(N[C@H]1CCS[C@H]2CCC[C@@H](C(=O)O)N2C1=O)[C@@H](S)Cc1ccccc1` [Omapatrilat], for which, at GPX1 [1] (setting [5]), the “GSH Binding (ΔTm) GPx1; shift in nanoDSF melting temperature” value was “+6.3 °C”. Moreover, the “GSH Binding (ΔTm) GPx1; shift in nanoDSF melting temperature, second inflection point” value at GPX1 [1] (setting [6]) is “+12.8 °C”. Also, the “Tm GPX1 (nanoDSF), second inflection point” value at GPX1 [1] (100 μM, DMSO control Tm 42.5°C) came out at 55.3 °C. For the same molecule, the “Tm GPX1 (nanoDSF)” value at GPX1 [1] (100 μM, DMSO control Tm 42.5°C) stood at 48.8 °C. The “thermal stabilization of GPX1” value at GPX1 [1] was “significant shifts in the melting temperature of GPX1”. For the same molecule, the values for the concentration for half-maximal inhibition (IC50) at human GPX2 and on GPX1 [3] were 4.7 µM and 5.7 µM, respectively.
Turning to `Cc1c(N(C)CS(=O)(=O)O)c(=O)n(-c2ccccc2)n1C` [Metamizole (dipyrone)], the IC50 is 3.3 µM at human GPX2, 8.8 µM at GPX4 [4] and 8.1 µM on GPX1 [3].
